Test results: US6004933A, “Cysteine protease inhibitors” (Cortech Inc., priority 1998, dated 1999)
Like-named read-outs stand apart in the source and are kept apart here.

Legend:
ICE (Caspase 1) [1] = target: T1, ICE (Caspase 1) (Homo sapiens, UniProt P29466); assay: THP-1 assay: IL-1β release after LPS stimulation (assay for ICE inhibition); assay type: cell-based; details: for IC50: LPS 1 ug/ml, 4 hr, ELISA, read-out: IC50 of reduction of IL1β release from THP1 cell line
T1 construct: endogenous in cells; host or cells: THP-1
T1 sequence (P29466 120-297 limits assumed): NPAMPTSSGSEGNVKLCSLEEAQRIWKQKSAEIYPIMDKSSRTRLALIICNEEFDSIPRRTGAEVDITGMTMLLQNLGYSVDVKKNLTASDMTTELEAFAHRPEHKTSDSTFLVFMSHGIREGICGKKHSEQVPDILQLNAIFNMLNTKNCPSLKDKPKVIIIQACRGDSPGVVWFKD
T1 sequence (P29466 317-404 limits assumed): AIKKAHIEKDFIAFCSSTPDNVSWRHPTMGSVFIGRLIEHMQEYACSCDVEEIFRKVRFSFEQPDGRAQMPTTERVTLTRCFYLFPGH
Source text: (§1) To examine the ability of the caspase family inhibitors, CQ-0010 and CQ-0011, to inhibit human IL-1β production, two different assays were employed. In the first, the human monocytic cell line, THP-1, was stimulated with E. coli lipopolysaccharide (LPS serotype 0127-88; Sigma Chemical Co., St. Louis, Mo.) in the presence and absence of the inhibitors. This cell line synthesizes and secretes IL-1β and TNFα as well as other cytokines upon LPS stimulation. The second assay used freshly-isolated human whole blood similarly stimulated with LPS.
(§2) Two×10^6 THP-1 cells were added to 24 well plates in 1 ml RPMI supplemented with 1% FCS, glutamine and 5×10^-5 M mercaptoethanol. Two-fold serial dilutions of the inhibitors, CQ-0010, CQ-0011 and the commmercially available Ac-YVAD-CHO (Biomol Research Laboratories Inc., Plymouth Meeting, Pa.), were preincubated with the cells for 15 min at 37° C. LPS was then added to a final concentration of 1 ug/ml and the plates incubated for 4 hr at 37° C. All incubations were carried out in a humidified incubator with 5% CO2 in air.
(§3) Supernatants were harvested after 4 hr and assayed by ELISA for the presence of TNFα and IL-1β using commercially available kits (PerSeptive Biosystems, Framingham, Mass. and R&D Systems, Minneapolis, Minn., respectively).

TNFα = assay: THP-1 assay: TNFα levels after LPS stimulation; assay type: cell-based, human; details: THP-1 cells, results not shown
Source text: as §1, §2, §3

ICE (Caspase 1) [2] = target: T1, ICE (Caspase 1); assay: Human whole blood assay: IL-1β release after LPS stimulation (assay for ICE inhibition); assay type: cell-based; details: LPS 10 or 100 ug/ml, 4 hr, ELISA, read-out: IC50 of reduction of IL1β release in whole blood assay
Source text: as §1
Heparinized whole blood (19.7 U heparin per ml) from healthy volunteers was collected and dispensed into 12×75 mm polystyrene tubes (0.25 ml per tube). The inhibitors, CQ-0010, CQ-0011 and Ac-YVAD-CHO were dissolved in DMSO, then diluted and added to the tubes in 0.25 ml and preincubated with the blood for 15 min at 37° C. LPS was then added to a final concentration of 10 or 100 ug/ml.
The tubes were loosely-capped and incubated in a water bath for 4 hr at 37° C. after which they were immersed briefly in an ice-water bath. Supernatants were harvested by centrifngation and stored at -70° C. The presence of TNFα and IL-1β was detected by commercially-available ELISA kits.

granzyme B = granzyme B (Homo sapiens, UniProt P10144); assay: Granzyme B inhibition, photometric, Succ-AAPD-pNA; assay type: biochemical; details: 20 μM Succ-AAPD-pNA, 1 mM DTT
Experimental: (§4) Inhibition constants were measured photometrically for YAMA (caspase 3), Lap3 (caspase 7), FLICE (caspase 8), Mch2 (caspase 6) and granzyme B. The buffer used for all enzymes consisted of 50 mM Hepes, 100 mM sodium chloride, 10% (v/v) sucrose, 0.1% (v/v) CHAPS and 10 mM dithiothreitol (DTT). In the case of granzyme B, only 1 mM DTT was used.
(§5) Enzymes were incubated at 37° C. for 10 minutes in 100 μL well plates and synthetic substrate and inhibitor were added simultaneously. Final substrate concentration was 20 μM in all cases. The synthetic substrate Ac-DEVD-pNA was used for all caspases and Succ-AAPD-pNA was used for granzyme B. The appearance of product was monitored over 10 minutes at 410 nm using a Spectromax 340 and IC50 curves were calculated from the initial slopes at varying inhibitor concentrations and inhibition constants were calculated.

FLICE (Mch5, Caspase 8) = FLICE (Mch5, Caspase 8) (Homo sapiens, UniProt Q14790); assay: Caspase inhibition, photometric, Ac-DEVD-pNA; assay type: biochemical
Experimental: as §4, §5

YAMA (CPP32, Caspase 3) = target: T2, YAMA (CPP32, Caspase 3) (Homo sapiens, UniProt P42574); assay: Caspase inhibition, photometric, Ac-DEVD-pNA; assay type: biochemical; details: 20 μM Ac-DEVD-pNA, 37° C.
T2 sequence (P42574 29-175 limits assumed): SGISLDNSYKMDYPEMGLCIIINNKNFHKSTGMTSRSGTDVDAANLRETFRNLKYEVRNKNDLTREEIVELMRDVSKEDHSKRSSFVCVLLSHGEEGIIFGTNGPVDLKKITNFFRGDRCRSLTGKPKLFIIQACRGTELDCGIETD
T2 sequence (P42574 176-277 limits assumed): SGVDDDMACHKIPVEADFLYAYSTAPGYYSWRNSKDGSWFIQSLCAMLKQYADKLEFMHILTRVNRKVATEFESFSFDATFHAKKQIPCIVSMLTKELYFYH
Experimental: as §4, §5

Lap3 (Mch3, Caspase 7) = target: T3, Lap3 (Mch3, Caspase 7) (Homo sapiens, UniProt P55210); assay: Caspase inhibition, photometric, Ac-DEVD-pNA; assay type: biochemical; details: 20 μM Ac-DEVD-pNA, 37° C.
T3 sequence (P55210 24-198 limits assumed): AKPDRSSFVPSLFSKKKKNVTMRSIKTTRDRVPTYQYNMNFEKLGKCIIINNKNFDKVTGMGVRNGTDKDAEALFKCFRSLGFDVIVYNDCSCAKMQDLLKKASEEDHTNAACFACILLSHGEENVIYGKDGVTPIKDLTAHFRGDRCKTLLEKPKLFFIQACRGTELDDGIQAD
T3 sequence (P55210 207-303 limits assumed): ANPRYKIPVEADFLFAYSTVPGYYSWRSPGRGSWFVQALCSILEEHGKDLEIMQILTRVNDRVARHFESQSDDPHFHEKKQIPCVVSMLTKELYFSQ
Experimental: as §4, §5

Mch2 (Caspase 6) = target: T4, Mch2 (Caspase 6) (Homo sapiens, UniProt P55212); assay: Caspase inhibition, photometric, Ac-DEVD-pNA; assay type: biochemical; details: 20 μM Ac-DEVD-pNA, 37° C.
T4 sequence (P55212 24-179 limits assumed): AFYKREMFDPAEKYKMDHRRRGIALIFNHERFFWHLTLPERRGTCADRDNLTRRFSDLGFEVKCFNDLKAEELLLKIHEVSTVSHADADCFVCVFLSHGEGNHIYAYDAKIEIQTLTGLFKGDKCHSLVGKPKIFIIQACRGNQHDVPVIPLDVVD
T4 sequence (P55212 194-293 limits assumed): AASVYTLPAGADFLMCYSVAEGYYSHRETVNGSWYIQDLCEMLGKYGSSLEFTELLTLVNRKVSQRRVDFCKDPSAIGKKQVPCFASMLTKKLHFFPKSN
Experimental: as §4, §5

cathepsin B = target: T5, cathepsin B (Homo sapiens, UniProt P07858); assay: Cathepsin B inhibition, fluorometric assay with Cbz-Phe-Arg-NHMec; assay type: biochemical; details: human enzyme; IC50 at substrate << Km taken as Ki; pH 6
T5 construct: purchased Calbiochem (San Diego, Calif.)
Source text: (§6) The enzyme cathepsin B (E.C. 3.4.22.01) was obtained from Calbiochem (San Diego, Calif.); cathepsin L (E.C. 3.4.22.15) from Athens Research and Technology Inc. (Athens,Ga.); and papain (E.C. 3.4.22.02) from Sigma (St. Louis, Mo.).
(§7) Cbz-Phe-Arg-NHMec (--NHMec: 7-(4-methyl)coumarylamide) was obtained from BachemCalifornia, Inc. (Torrance, Calif.). All other reagents were obtained from Sigma.
(§8) The enzymes used in enzyme assays with methylcoumarylamides were activated as described elsewhere (Barret, et al., Methods Enzymol. 80:535-561 (1981); Bromme, et al., Biochem. J, 264: 475-481 (1989). Cathepsin L was assayed in 0.34 M sodium acetate buffer, pH 5.5, containing 0.1% (v/v) Brij 35, 2.5 mM dithiothreitol (DTT) and 5 mM Na2 -EDTA. Cathepsin B was assayed under the same conditions, except that the buffer was adjusted to pH 6. Papain was assayed in 50 mM sodium phosphate buffer, pH 6.8, containing 0.2 M sodium chloride, 2 mM DTT, 1 mM Na2 -EDTA and 0.025% Brij 35 (v/v).
(§9) Initial velocities of enzymatic reactions were measured spectrofluorometrically (λex =370 nm, λem 460 nm) with a Quanta Master QM1 (Photon Technologies International, South Brunswick, N.J.). Stock solutions of the enzymes were diluted into the buffer, equilibrated at room temperature, and preincubated without or with increasing concentrations of inhibitors. The reactions were started by addition of substrate. A total of 4 to 8 inhibitor concentrations were used to determine IC50 values. In all cases the substrate concentrations were much smaller than the Km value, and the IC50 values measured approximated the Ki directly (Cheng, et al., Biochemical Pharmacology, 22:3099-3108 (1973)).

gingipain R (RGP) = assay: Gingipain assay, BAPNA cleavage at 405 nm; assay type: biochemical, human; details: 2 mM BAPNA, cell marked (IC50) in the Ki [nM] table
Experimental: All assays were carried out in a 96 well microtiter plate reader and cleavage of BAPNA (Nα-benzoyl-DL-arginine-p-nitroanilide hydrochloride) was detected at 405 nm.
All assays were performed as follows: 180 μl assay buffer (50 mM Tris, […], at pH 7.6) was mixed with 10 μl gingipain R (RGP). The mixture was incubated for 5 min. at room temperature to reduce and activate RGP. 10 μl of each inhibitor were added at various concentrations. These mixtures were incubated for 10 min. at room temperature to allow the inhibitors to complex with RGP. 50 μl of 10 mM BAPNA substrate was added. A two minute assay was performed with a final volume of 250 μl, and a final BAPNA concentration of 2 mM.
For this reason, two minute assays were performed whereby the Vmax in mOD/min change in absorbance at 405 nm was used as the initial velocity reading. In order to titrate RGP against leupeptin and to determine % activity, these velocity readings were transformed on a percent scale where the 100% control contained no inhibitor. The initial velocity values were also entered into Graphpad Prism regression program along with the various inhibitor concentrations to obtain the IC50 values. All data represents the minimum of duplicates, and at times triplicate sets.

cathepsin L = target: T6, cathepsin L (Homo sapiens, UniProt P07711); assay: Cathepsin L inhibition, fluorometric assay with Cbz-Phe-Arg-NHMec; assay type: biochemical; details: human enzyme; IC50 at substrate << Km taken as Ki; pH 5.5
T6 construct: purchased Athens Research and Technology Inc. (Athens,Ga.)
Source text: as §6, §7, §8, §9

papain = target: T7, papain (Carica papaya, UniProt P00784); assay: Papain inhibition, fluorometric assay with Cbz-Phe-Arg-NHMec; assay type: biochemical; details: IC50 at substrate << Km taken as Ki; pH 6.8
T7 construct: purchased Sigma (St. Louis, Mo.)
T7 sequence (P00784 134-345): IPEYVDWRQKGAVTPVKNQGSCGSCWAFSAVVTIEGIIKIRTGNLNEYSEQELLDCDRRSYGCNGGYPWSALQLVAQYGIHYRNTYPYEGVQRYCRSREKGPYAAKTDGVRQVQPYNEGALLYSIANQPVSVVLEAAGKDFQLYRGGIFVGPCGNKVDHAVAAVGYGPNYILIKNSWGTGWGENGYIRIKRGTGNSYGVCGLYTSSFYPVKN
Source text: as §6, §7, §8, §9

[3] = 20 μM Ac-DEVD-pNA, 37° C., read-out: Ki, FLICE (Mch5, Caspase 8)

Chain of FLICE (Mch5, Caspase 8) (Q14790 217-374 limits assumed, species assumed): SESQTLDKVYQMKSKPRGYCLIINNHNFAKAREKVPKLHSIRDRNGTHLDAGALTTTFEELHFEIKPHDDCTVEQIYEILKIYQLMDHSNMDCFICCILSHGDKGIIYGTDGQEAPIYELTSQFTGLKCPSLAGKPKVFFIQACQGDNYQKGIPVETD
Chain of FLICE (Mch5, Caspase 8) (Q14790 385-479 limits assumed, species assumed): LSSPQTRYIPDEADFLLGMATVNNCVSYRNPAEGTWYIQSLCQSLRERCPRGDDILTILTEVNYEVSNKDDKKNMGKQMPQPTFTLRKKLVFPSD
Chain of granzyme B (P10144 21-247, species assumed): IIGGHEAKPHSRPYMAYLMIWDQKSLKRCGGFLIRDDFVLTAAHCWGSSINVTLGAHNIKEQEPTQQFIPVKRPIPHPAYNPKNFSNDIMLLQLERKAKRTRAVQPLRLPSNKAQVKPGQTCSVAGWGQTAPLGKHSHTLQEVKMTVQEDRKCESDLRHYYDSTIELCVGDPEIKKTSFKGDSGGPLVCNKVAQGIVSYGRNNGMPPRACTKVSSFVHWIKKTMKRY
T6 sequence (P07711 114-333): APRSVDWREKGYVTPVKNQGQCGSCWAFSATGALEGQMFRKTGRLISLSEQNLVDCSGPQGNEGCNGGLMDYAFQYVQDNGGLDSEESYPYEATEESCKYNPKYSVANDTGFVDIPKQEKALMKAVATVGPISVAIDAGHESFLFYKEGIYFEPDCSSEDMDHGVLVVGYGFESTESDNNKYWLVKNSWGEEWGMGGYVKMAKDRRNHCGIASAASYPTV

SMILES | IC50 (ICE (Caspase 1) [1]) [nM] | inhibition of IL-1β production (ICE (Caspase 1) [1]; at 5 μM, THP-1 cells (FIG. 1)) | effect on levels of TNFα produced (TNFα) | IC50 (ICE (Caspase 1) [2]) [nM] | Ki, Granzyme (granzyme B) | Ki (FLICE (Mch5, Caspase 8); [3]) [nM] | Ki (FLICE (Mch5, Caspase 8); read-out: Ki, FLICE) [nM] | Ki (YAMA (CPP32, Caspase 3)) [nM] | Ki, Lap3 (Mch3, Caspase 7) (Lap3 (Mch3, Caspase 7)) | Ki (Mch2 (Caspase 6)) [nM] | Ki (cathepsin B) [nM] | IC50 (gingipain R (RGP)) [nM] | Ki (cathepsin L) [nM] | Ki (papain) [nM]
CC(=O)N[C@@H](Cc1ccc(O)cc1)C(=O)N[C@H](C(=O)N[C@@H](C)C(=O)NC(CC(=O)O)C(=O)c1nnc(-c2ccccc2)o1)C(C)C (stereo partly drawn) [CQ-0010, Acetyl-L-tyrosinyl-L-valyl-N-[1-[2-[(5-phenyl)-1,3,4-oxadiazolyl]carbonyl]-2-carboxy-ethyl]-L-alanine amide] | 300 | almost completely inhibiting | no dose-dependent effect | 300 to 500 | Not Active | ≤ 20 | ≤ 20 | 3300 | Not Active | 33000 | – | – | – | –
CC(=O)N[C@@H](CC(C)C)C(=O)N[C@@H](CC(C)C)C(=O)N[C@H](C=O)CCCNC(=N)N [Leupeptin, reference compound] | – | – | – | – | – | – | – | – | – | – | 6.1 ± 1.2 | 20.8 | 0.62 ± 0.1 | 1 ± 0.06
CC(=O)N[C@@H](Cc1ccc(O)cc1)C(=O)N[C@H](C(=O)N[C@@H](C)C(=O)N[C@H](C=O)CC(=O)O)C(C)C [Ac-YVAD-CHO, reference compound] | 300 | – | – | 300 to 500 | Not Active | 3700 | – | 20000 | Not Active | 100000 | – | – | – | –
